Assay results: the supplement of paper PMC8882468

Tested on: HCI-025 (organoid from a breast cancer xenograft)
Experiment: CTG-3D luminescence at 96 h relative to day-0 seeding control (ratio to day 0); higher = more growth / less cytotoxicity; PDxO 3D drug screen, 96 h, CTG-3D normalised to day-0 seeding control.
Conditions: 12.5 pM; days in culture: 172

| SMILES | CTG-3D luminescence at 96 h |
| --- | --- |
| COc1cc2c(Oc3ccc4[nH]c(C)cc4c3F)ncnc2cc1OCCCN1CCCC1 [cediranib] | 2.66 |
| CC(C)n1nc(-c2ccc3oc(N)nc3c2)c2c(N)ncnc21 [sapanisertib] | 2.78 |
| Cc1cc(Nc2ncnc3ccc(NC4=NC(C)(C)CO4)cc23)ccc1Oc1ccn2ncnc2c1 [tucatinib] | 3 |
| C[C@H](NC(=O)CCC(F)(F)F)C(=O)N[C@@H]1C(=O)N(CCO)c2ncccc2-c2ccccc21 [crenigacestat] | 2.73 |
| C[C@]12CC[C@@H]3c4ccc(O)cc4C[C@@H](CCCCCCCCC[S+]([O-])CCCC(F)(F)C(F)(F)F)[C@H]3[C@@H]1CC[C@@H]2O (some centres not stated) [fulvestrant] | 3.02 |
| O=C(c1ccc(F)c(F)c1Nc1ccc(I)cc1F)N1CC(O)([C@@H]2CCCCN2)C1 [cobimetinib] | 2.78 |
| O=C(/C=C/c1cccnc1)NCCCCC1CCN(C(=O)c2ccccc2)CC1 [FK866] | 3.12 |
| CS(=O)(=O)c1ccc(C(=O)Nc2ccc(Cl)c(-c3ccccn3)c2)c(Cl)c1 [vismodegib] | 3.09 |
| C=CCn1c(=O)c2cnc(Nc3ccc(N4CCN(C)CC4)cc3)nc2n1-c1cccc(C(C)(C)O)n1 [adavosertib] | 2.76 |

Same assay, conditions: 12.5 pM; days in culture: 209

| SMILES | CTG-3D luminescence at 96 h |
| --- | --- |
| COc1cc2c(Oc3ccc4[nH]c(C)cc4c3F)ncnc2cc1OCCCN1CCCC1 [cediranib] | 1.77 |
| CC(C)n1nc(-c2ccc3oc(N)nc3c2)c2c(N)ncnc21 [sapanisertib] | 1.39 |
| Cc1cc(Nc2ncnc3ccc(NC4=NC(C)(C)CO4)cc23)ccc1Oc1ccn2ncnc2c1 [tucatinib] | 1.95 |
| C[C@H](NC(=O)CCC(F)(F)F)C(=O)N[C@@H]1C(=O)N(CCO)c2ncccc2-c2ccccc21 [crenigacestat] | 2.02 |
| C[C@]12CC[C@@H]3c4ccc(O)cc4C[C@@H](CCCCCCCCC[S+]([O-])CCCC(F)(F)C(F)(F)F)[C@H]3[C@@H]1CC[C@@H]2O (some centres not stated) [fulvestrant] | 1.87 |
| O=C(c1ccc(F)c(F)c1Nc1ccc(I)cc1F)N1CC(O)([C@@H]2CCCCN2)C1 [cobimetinib] | 1.76 |
| O=C(/C=C/c1cccnc1)NCCCCC1CCN(C(=O)c2ccccc2)CC1 [FK866] | 2.08 |
| CS(=O)(=O)c1ccc(C(=O)Nc2ccc(Cl)c(-c3ccccn3)c2)c(Cl)c1 [vismodegib] | 1.85 |
| C=CCn1c(=O)c2cnc(Nc3ccc(N4CCN(C)CC4)cc3)nc2n1-c1cccc(C(C)(C)O)n1 [adavosertib] | 1.68 |

Same assay, conditions: 12.5 pM; days in culture: 218

| SMILES | CTG-3D luminescence at 96 h |
| --- | --- |
| COc1cc2c(Oc3ccc4[nH]c(C)cc4c3F)ncnc2cc1OCCCN1CCCC1 [cediranib] | 1.52 |
| CC(C)n1nc(-c2ccc3oc(N)nc3c2)c2c(N)ncnc21 [sapanisertib] | 1.85 |
| Cc1cc(Nc2ncnc3ccc(NC4=NC(C)(C)CO4)cc23)ccc1Oc1ccn2ncnc2c1 [tucatinib] | 1.26 |
| C[C@H](NC(=O)CCC(F)(F)F)C(=O)N[C@@H]1C(=O)N(CCO)c2ncccc2-c2ccccc21 [crenigacestat] | 1.89 |
| C[C@]12CC[C@@H]3c4ccc(O)cc4C[C@@H](CCCCCCCCC[S+]([O-])CCCC(F)(F)C(F)(F)F)[C@H]3[C@@H]1CC[C@@H]2O (some centres not stated) [fulvestrant] | 1.47 |
| O=C(c1ccc(F)c(F)c1Nc1ccc(I)cc1F)N1CC(O)([C@@H]2CCCCN2)C1 [cobimetinib] | 1.65 |
| O=C(/C=C/c1cccnc1)NCCCCC1CCN(C(=O)c2ccccc2)CC1 [FK866] | 1.78 |
| CS(=O)(=O)c1ccc(C(=O)Nc2ccc(Cl)c(-c3ccccn3)c2)c(Cl)c1 [vismodegib] | 1.48 |
| C=CCn1c(=O)c2cnc(Nc3ccc(N4CCN(C)CC4)cc3)nc2n1-c1cccc(C(C)(C)O)n1 [adavosertib] | 1.7 |

Same assay, conditions: 0.00025 µM; days in culture: 172

| SMILES | CTG-3D luminescence at 96 h |
| --- | --- |
| COc1cc2c(Oc3ccc4[nH]c(C)cc4c3F)ncnc2cc1OCCCN1CCCC1 [cediranib] | 1.84 |
| CC(C)n1nc(-c2ccc3oc(N)nc3c2)c2c(N)ncnc21 [sapanisertib] | 1.04 |
| Cc1cc(Nc2ncnc3ccc(NC4=NC(C)(C)CO4)cc23)ccc1Oc1ccn2ncnc2c1 [tucatinib] | 1.87 |
| C[C@H](NC(=O)CCC(F)(F)F)C(=O)N[C@@H]1C(=O)N(CCO)c2ncccc2-c2ccccc21 [crenigacestat] | 1.6 |
| C[C@]12CC[C@@H]3c4ccc(O)cc4C[C@@H](CCCCCCCCC[S+]([O-])CCCC(F)(F)C(F)(F)F)[C@H]3[C@@H]1CC[C@@H]2O (some centres not stated) [fulvestrant] | 1.74 |
| O=C(c1ccc(F)c(F)c1Nc1ccc(I)cc1F)N1CC(O)([C@@H]2CCCCN2)C1 [cobimetinib] | 1.47 |
| O=C(/C=C/c1cccnc1)NCCCCC1CCN(C(=O)c2ccccc2)CC1 [FK866] | 0.0766 |
| CS(=O)(=O)c1ccc(C(=O)Nc2ccc(Cl)c(-c3ccccn3)c2)c(Cl)c1 [vismodegib] | 1.78 |
| C=CCn1c(=O)c2cnc(Nc3ccc(N4CCN(C)CC4)cc3)nc2n1-c1cccc(C(C)(C)O)n1 [adavosertib] | 1.83 |

Same assay, conditions: 0.00025 µM; days in culture: 209

| SMILES | CTG-3D luminescence at 96 h |
| --- | --- |
| COc1cc2c(Oc3ccc4[nH]c(C)cc4c3F)ncnc2cc1OCCCN1CCCC1 [cediranib] | 1.18 |
| CC(C)n1nc(-c2ccc3oc(N)nc3c2)c2c(N)ncnc21 [sapanisertib] | 2.18 |
| Cc1cc(Nc2ncnc3ccc(NC4=NC(C)(C)CO4)cc23)ccc1Oc1ccn2ncnc2c1 [tucatinib] | 2.11 |
| C[C@H](NC(=O)CCC(F)(F)F)C(=O)N[C@@H]1C(=O)N(CCO)c2ncccc2-c2ccccc21 [crenigacestat] | 2.25 |
| C[C@]12CC[C@@H]3c4ccc(O)cc4C[C@@H](CCCCCCCCC[S+]([O-])CCCC(F)(F)C(F)(F)F)[C@H]3[C@@H]1CC[C@@H]2O (some centres not stated) [fulvestrant] | 1.6 |
| O=C(c1ccc(F)c(F)c1Nc1ccc(I)cc1F)N1CC(O)([C@@H]2CCCCN2)C1 [cobimetinib] | 1.67 |
| O=C(/C=C/c1cccnc1)NCCCCC1CCN(C(=O)c2ccccc2)CC1 [FK866] | 1.82 |
| CS(=O)(=O)c1ccc(C(=O)Nc2ccc(Cl)c(-c3ccccn3)c2)c(Cl)c1 [vismodegib] | 2.63 |
| C=CCn1c(=O)c2cnc(Nc3ccc(N4CCN(C)CC4)cc3)nc2n1-c1cccc(C(C)(C)O)n1 [adavosertib] | 1.93 |

Same assay, conditions: 0.00025 µM; days in culture: 218

| SMILES | CTG-3D luminescence at 96 h |
| --- | --- |
| COc1cc2c(Oc3ccc4[nH]c(C)cc4c3F)ncnc2cc1OCCCN1CCCC1 [cediranib] | 1.84 |
| CC(C)n1nc(-c2ccc3oc(N)nc3c2)c2c(N)ncnc21 [sapanisertib] | 2.15 |
| Cc1cc(Nc2ncnc3ccc(NC4=NC(C)(C)CO4)cc23)ccc1Oc1ccn2ncnc2c1 [tucatinib] | 1.91 |
| C[C@H](NC(=O)CCC(F)(F)F)C(=O)N[C@@H]1C(=O)N(CCO)c2ncccc2-c2ccccc21 [crenigacestat] | 2.02 |
| C[C@]12CC[C@@H]3c4ccc(O)cc4C[C@@H](CCCCCCCCC[S+]([O-])CCCC(F)(F)C(F)(F)F)[C@H]3[C@@H]1CC[C@@H]2O (some centres not stated) [fulvestrant] | 1.8 |
| O=C(c1ccc(F)c(F)c1Nc1ccc(I)cc1F)N1CC(O)([C@@H]2CCCCN2)C1 [cobimetinib] | 2.13 |
| O=C(/C=C/c1cccnc1)NCCCCC1CCN(C(=O)c2ccccc2)CC1 [FK866] | 2.01 |
| CS(=O)(=O)c1ccc(C(=O)Nc2ccc(Cl)c(-c3ccccn3)c2)c(Cl)c1 [vismodegib] | 1.67 |
| C=CCn1c(=O)c2cnc(Nc3ccc(N4CCN(C)CC4)cc3)nc2n1-c1cccc(C(C)(C)O)n1 [adavosertib] | 1.86 |

Same assay, conditions: 0.005 µM; days in culture: 172

| SMILES | CTG-3D luminescence at 96 h |
| --- | --- |
| COc1cc2c(Oc3ccc4[nH]c(C)cc4c3F)ncnc2cc1OCCCN1CCCC1 [cediranib] | 3.42 |
| CC(C)n1nc(-c2ccc3oc(N)nc3c2)c2c(N)ncnc21 [sapanisertib] | 1.61 |
| Cc1cc(Nc2ncnc3ccc(NC4=NC(C)(C)CO4)cc23)ccc1Oc1ccn2ncnc2c1 [tucatinib] | 3.97 |
| C[C@H](NC(=O)CCC(F)(F)F)C(=O)N[C@@H]1C(=O)N(CCO)c2ncccc2-c2ccccc21 [crenigacestat] | 2.79 |
| C[C@]12CC[C@@H]3c4ccc(O)cc4C[C@@H](CCCCCCCCC[S+]([O-])CCCC(F)(F)C(F)(F)F)[C@H]3[C@@H]1CC[C@@H]2O (some centres not stated) [fulvestrant] | 3.7 |
| O=C(c1ccc(F)c(F)c1Nc1ccc(I)cc1F)N1CC(O)([C@@H]2CCCCN2)C1 [cobimetinib] | 2.47 |
| O=C(/C=C/c1cccnc1)NCCCCC1CCN(C(=O)c2ccccc2)CC1 [FK866] | 0.075 |
| CS(=O)(=O)c1ccc(C(=O)Nc2ccc(Cl)c(-c3ccccn3)c2)c(Cl)c1 [vismodegib] | 3.88 |
| C=CCn1c(=O)c2cnc(Nc3ccc(N4CCN(C)CC4)cc3)nc2n1-c1cccc(C(C)(C)O)n1 [adavosertib] | 3.85 |

Same assay, conditions: 0.005 µM; days in culture: 209

| SMILES | CTG-3D luminescence at 96 h |
| --- | --- |
| COc1cc2c(Oc3ccc4[nH]c(C)cc4c3F)ncnc2cc1OCCCN1CCCC1 [cediranib] | 1.76 |
| CC(C)n1nc(-c2ccc3oc(N)nc3c2)c2c(N)ncnc21 [sapanisertib] | 1.62 |
| Cc1cc(Nc2ncnc3ccc(NC4=NC(C)(C)CO4)cc23)ccc1Oc1ccn2ncnc2c1 [tucatinib] | 2.45 |
| C[C@H](NC(=O)CCC(F)(F)F)C(=O)N[C@@H]1C(=O)N(CCO)c2ncccc2-c2ccccc21 [crenigacestat] | 2.26 |
| C[C@]12CC[C@@H]3c4ccc(O)cc4C[C@@H](CCCCCCCCC[S+]([O-])CCCC(F)(F)C(F)(F)F)[C@H]3[C@@H]1CC[C@@H]2O (some centres not stated) [fulvestrant] | 2.26 |
| O=C(c1ccc(F)c(F)c1Nc1ccc(I)cc1F)N1CC(O)([C@@H]2CCCCN2)C1 [cobimetinib] | 2.01 |
| O=C(/C=C/c1cccnc1)NCCCCC1CCN(C(=O)c2ccccc2)CC1 [FK866] | 0.314 |
| CS(=O)(=O)c1ccc(C(=O)Nc2ccc(Cl)c(-c3ccccn3)c2)c(Cl)c1 [vismodegib] | 2.69 |
| C=CCn1c(=O)c2cnc(Nc3ccc(N4CCN(C)CC4)cc3)nc2n1-c1cccc(C(C)(C)O)n1 [adavosertib] | 1.69 |
